Reference: ChEMBL document CHEMBL3414527, “Engineering potent and selective analogues of GpTx-1, a tarantula venom peptide antagonist of the Na(V)1.7 sodium channel” (J Med Chem, 2015)
Bridge positions count the residues as written; N and C are the ends. Peptide text beside a SMILES is read from it.

Target: Sodium channel protein type 5 subunit alpha (Homo sapiens, UniProt Q14524)
Experiment: Inhibition of human NaV1.5 at -140 mV holding potential by whole-cell patch clamp assay

Sequence of Sodium channel protein type 5 subunit alpha (Q14524 whole entry): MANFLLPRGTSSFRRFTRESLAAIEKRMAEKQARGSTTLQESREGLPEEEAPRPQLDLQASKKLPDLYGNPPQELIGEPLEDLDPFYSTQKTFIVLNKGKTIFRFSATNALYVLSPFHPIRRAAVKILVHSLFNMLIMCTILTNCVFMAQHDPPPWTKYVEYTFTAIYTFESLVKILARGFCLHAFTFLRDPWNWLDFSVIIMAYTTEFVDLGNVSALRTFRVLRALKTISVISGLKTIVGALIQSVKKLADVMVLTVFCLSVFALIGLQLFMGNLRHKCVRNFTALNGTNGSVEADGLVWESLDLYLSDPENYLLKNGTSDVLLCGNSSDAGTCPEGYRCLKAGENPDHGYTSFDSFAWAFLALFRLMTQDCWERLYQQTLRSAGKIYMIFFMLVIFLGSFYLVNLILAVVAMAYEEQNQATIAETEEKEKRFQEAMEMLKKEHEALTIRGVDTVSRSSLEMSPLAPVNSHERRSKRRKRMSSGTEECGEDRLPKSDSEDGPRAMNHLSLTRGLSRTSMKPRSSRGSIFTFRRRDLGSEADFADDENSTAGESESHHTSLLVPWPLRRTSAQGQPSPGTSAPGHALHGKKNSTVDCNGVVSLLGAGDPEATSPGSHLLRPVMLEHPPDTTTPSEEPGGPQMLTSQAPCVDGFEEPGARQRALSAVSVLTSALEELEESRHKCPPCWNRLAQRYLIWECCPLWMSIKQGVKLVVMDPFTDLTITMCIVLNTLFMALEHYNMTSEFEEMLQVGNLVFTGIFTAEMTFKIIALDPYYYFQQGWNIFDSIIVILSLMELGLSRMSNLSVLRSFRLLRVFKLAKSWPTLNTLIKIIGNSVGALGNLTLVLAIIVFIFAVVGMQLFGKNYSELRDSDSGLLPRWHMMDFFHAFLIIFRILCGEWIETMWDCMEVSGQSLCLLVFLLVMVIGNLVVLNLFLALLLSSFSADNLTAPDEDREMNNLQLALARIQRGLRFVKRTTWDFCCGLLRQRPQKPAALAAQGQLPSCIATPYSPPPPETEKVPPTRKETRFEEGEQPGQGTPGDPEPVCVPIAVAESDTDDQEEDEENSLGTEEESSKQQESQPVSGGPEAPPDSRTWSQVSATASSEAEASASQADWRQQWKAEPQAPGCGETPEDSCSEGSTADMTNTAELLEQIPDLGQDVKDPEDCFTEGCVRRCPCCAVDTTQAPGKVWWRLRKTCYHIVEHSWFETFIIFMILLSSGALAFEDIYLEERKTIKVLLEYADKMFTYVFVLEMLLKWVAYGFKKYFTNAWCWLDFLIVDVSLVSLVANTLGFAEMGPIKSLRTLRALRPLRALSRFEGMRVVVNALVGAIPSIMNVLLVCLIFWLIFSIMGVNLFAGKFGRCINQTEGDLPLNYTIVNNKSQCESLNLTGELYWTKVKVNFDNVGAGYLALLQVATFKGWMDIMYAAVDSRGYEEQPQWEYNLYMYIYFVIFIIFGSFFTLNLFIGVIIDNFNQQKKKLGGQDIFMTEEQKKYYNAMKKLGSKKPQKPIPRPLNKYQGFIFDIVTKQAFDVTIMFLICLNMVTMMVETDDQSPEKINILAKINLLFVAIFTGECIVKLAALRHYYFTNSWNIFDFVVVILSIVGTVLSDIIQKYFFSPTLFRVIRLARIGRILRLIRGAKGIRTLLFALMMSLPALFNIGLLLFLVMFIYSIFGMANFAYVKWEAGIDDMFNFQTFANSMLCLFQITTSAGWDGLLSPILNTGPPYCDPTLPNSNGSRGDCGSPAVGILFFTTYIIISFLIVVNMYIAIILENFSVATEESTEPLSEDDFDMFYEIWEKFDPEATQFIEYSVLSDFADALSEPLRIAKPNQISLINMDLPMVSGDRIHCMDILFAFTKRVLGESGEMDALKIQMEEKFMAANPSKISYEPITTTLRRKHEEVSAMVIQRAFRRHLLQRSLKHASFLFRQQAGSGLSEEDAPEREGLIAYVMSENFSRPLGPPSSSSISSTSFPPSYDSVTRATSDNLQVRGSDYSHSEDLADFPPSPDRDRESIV

**Q.** For `CC[C@H](C)[C@@H]1NC(=O)[C@@H]2CSSC[C@@H]3NC(=O)[C@H](C(C)C)NC(=O)[C@H](CC(C)C)NC(=O)[C@H](CC(N)=O)NC(=O)[C@@H]4CCCN4C(=O)[C@H](CCCNC(=N)N)NC(=O)[C@H](CSSC[C@H](NC(=O)[C@H](C)N)C(=O)N[C@@H](CC(C)C)C(=O)NCC(=O)N[C@@H](Cc4ccccc4)C(=O)N[C@@H](CCSC)C(=O)N[C@@H](CCCNC(=N)N)C(=O)N[C@@H](CCCCN)C(=O)N2)NC(=O)[C@H](CSSC[C@@H](C(=O)N[C@@H](CCCCN)C(=O)N[C@@H](Cc2ccc(O)cc2)C(=O)N[C@H](C(=O)N[C@@H](Cc2ccccc2)C(N)=O)C(C)C)NC(=O)[C@H](Cc2c[nH]c4ccccc24)NC(=O)[C@H](CCCCN)NC(=O)[C@H](Cc2cnc[nH]2)NC(=O)[C@H]([C@@H](C)O)NC(=O)[C@H](CCCNC(=N)N)NC(=O)[C@H](CO)NC3=O)NC(=O)[C@H](CCCCN)NC(=O)[C@H](CC(=O)O)NC(=O)[C@H](CC(N)=O)NC(=O)[C@H](CC(=O)O)NC(=O)[C@@H]2CCCN2C1=O` (H-ACLGFMRKCIPDNDKCCRPNLVCSRTHKWCKYVF-NH2; disulfide 2-17, 9-23, 16-30), which IC50 is on record?
**A.** The IC50 was greater than 5 µM.

**Q.** How did the IC50 turn out when `CC[C@H](C)[C@@H]1NC(=O)[C@@H]2CSSC[C@@H]3NC(=O)[C@H](C(C)C)NC(=O)[C@H](CC(C)C)NC(=O)[C@H](CC(N)=O)NC(=O)[C@@H]4CCCN4C(=O)[C@H](CCCNC(=N)N)NC(=O)[C@H](CSSC[C@H](NC(=O)[C@@H](N)CC(=O)O)C(=O)N[C@@H](CC(C)C)C(=O)NCC(=O)N[C@@H](C)C(=O)N[C@@H](Cc4ccccc4)C(=O)N[C@@H](CCCNC(=N)N)C(=O)N[C@@H](CCCCN)C(=O)N2)NC(=O)[C@H](CSSC[C@@H](C(=O)N[C@@H](CCCCN)C(=O)N[C@@H](Cc2ccc(O)cc2)C(=O)N[C@H](C(=O)N[C@@H](Cc2ccccc2)C(N)=O)C(C)C)NC(=O)[C@H](Cc2c[nH]c4ccccc24)NC(=O)[C@H](CCCCN)NC(=O)[C@H](Cc2cnc[nH]2)NC(=O)[C@H](CC(C)C)NC(=O)[C@H](CCCNC(=N)N)NC(=O)[C@H](CO)NC3=O)NC(=O)[C@H](CCCCN)NC(=O)[C@H](CC(=O)O)NC(=O)[C@H](CC(N)=O)NC(=O)[C@H](CC(=O)O)NC(=O)[C@@H]2CCCN2C1=O` (H-DCLGAFRKCIPDNDKCCRPNLVCSRLHKWCKYVF-NH2; disulfide 2-17, 9-23, 16-30) was run?
**A.** The IC50 was greater than 10 µM.

**Q.** Which IC50 does the source give for `CC[C@H](C)[C@@H]1NC(=O)[C@@H]2CSSC[C@@H]3NC(=O)[C@H](C(C)C)NC(=O)[C@H](CC(C)C)NC(=O)[C@H](CC(N)=O)NC(=O)[C@@H]4CCCN4C(=O)[C@H](CCCNC(=N)N)NC(=O)[C@H](CSSC[C@H](NC(=O)[C@@H](N)CC(=O)O)C(=O)N[C@@H](CC(C)C)C(=O)N[C@@H](C)C(=O)N[C@@H](Cc4ccccc4)C(=O)N[C@@H](CCSC)C(=O)N[C@@H](CCCNC(=N)N)C(=O)N[C@@H](CCCCN)C(=O)N2)NC(=O)[C@H](CSSC[C@@H](C(=O)N[C@@H](CCCCN)C(=O)N[C@@H](Cc2ccc(O)cc2)C(=O)N[C@H](C(=O)N[C@@H](Cc2ccccc2)C(N)=O)C(C)C)NC(=O)[C@H](Cc2c[nH]c4ccccc24)NC(=O)[C@H](CCCCN)NC(=O)[C@H](Cc2cnc[nH]2)NC(=O)[C@H]([C@@H](C)O)NC(=O)[C@H](CCCNC(=N)N)NC(=O)[C@H](CO)NC3=O)NC(=O)[C@H](CCCCN)NC(=O)[C@H](CC(=O)O)NC(=O)[C@H](CC(N)=O)NC(=O)[C@H](CC(=O)O)NC(=O)[C@@H]2CCCN2C1=O` (H-DCLAFMRKCIPDNDKCCRPNLVCSRTHKWCKYVF-NH2; disulfide 2-17, 9-23, 16-30) here?
**A.** The IC50 was greater than 5 µM.

**Q.** For `CC[C@H](C)[C@@H]1NC(=O)[C@@H]2CSSC[C@@H]3NC(=O)[C@H](C(C)C)NC(=O)[C@H](CC(C)C)NC(=O)[C@H](CC(N)=O)NC(=O)[C@@H]4CCCN4C(=O)[C@H](CCCNC(=N)N)NC(=O)[C@H](CSSC[C@H](NC(=O)[C@@H](N)CC(=O)O)C(=O)N[C@@H](CC(C)C)C(=O)NCC(=O)N[C@@H](Cc4ccccc4)C(=O)N[C@@H](CCSC)C(=O)N[C@@H](CCCNC(=N)N)C(=O)N[C@@H](CCCCN)C(=O)N2)NC(=O)[C@H](CSSC[C@@H](C(=O)N[C@@H](CCCCN)C(=O)N[C@@H](Cc2ccc(O)cc2)C(=O)N[C@H](C(=O)N[C@@H](Cc2ccccc2)C(N)=O)C(C)C)NC(=O)[C@H](Cc2c[nH]c4ccccc24)NC(=O)[C@H](CCCCN)NC(=O)[C@H](Cc2cnc[nH]2)NC(=O)[C@H](CCCNC(=N)N)NC(=O)[C@H](CCCNC(=N)N)NC(=O)[C@H](CO)NC3=O)NC(=O)[C@H](CCCCN)NC(=O)[C@H](CC(=O)O)NC(=O)[C@H](CC(N)=O)NC(=O)[C@H](CC(=O)O)NC(=O)[C@@H]2CCCN2C1=O` (H-DCLGFMRKCIPDNDKCCRPNLVCSRRHKWCKYVF-NH2; disulfide 2-17, 9-23, 16-30), which IC50 is on record?
**A.** Its IC50 is 0.5 µM.

**Q.** `CC[C@H](C)[C@@H]1NC(=O)[C@@H]2CSSC[C@@H]3NC(=O)[C@H](C(C)C)NC(=O)[C@H](CC(C)C)NC(=O)[C@H](CC(N)=O)NC(=O)[C@@H]4CCCN4C(=O)[C@H](CCCNC(=N)N)NC(=O)[C@H](CSSC[C@H](NC(=O)[C@@H](N)CC(=O)O)C(=O)N[C@@H](CC(C)C)C(=O)NCC(=O)N[C@@H](Cc4ccccc4)C(=O)N[C@@H](CCSC)C(=O)N[C@@H](CCCNC(=N)N)C(=O)N[C@@H](CCCCN)C(=O)N2)NC(=O)[C@H](CSSC[C@@H](C(=O)N[C@@H](CCCCN)C(=O)N[C@@H](C)C(=O)N[C@H](C(=O)N[C@@H](Cc2ccccc2)C(N)=O)C(C)C)NC(=O)[C@H](Cc2c[nH]c4ccccc24)NC(=O)[C@H](CCCCN)NC(=O)[C@H](Cc2cnc[nH]2)NC(=O)[C@H]([C@@H](C)O)NC(=O)[C@H](CCCNC(=N)N)NC(=O)[C@H](CO)NC3=O)NC(=O)[C@H](CCCCN)NC(=O)[C@H](CC(=O)O)NC(=O)[C@H](CC(N)=O)NC(=O)[C@H](CC(=O)O)NC(=O)[C@@H]2CCCN2C1=O` (H-DCLGFMRKCIPDNDKCCRPNLVCSRTHKWCKAVF-NH2; disulfide 2-17, 9-23, 16-30) was tested. Which IC50 did it give?
**A.** The IC50 was greater than 5 µM.

**Q.** How did the IC50 turn out when `CC[C@H](C)[C@@H]1NC(=O)[C@@H]2CSSC[C@@H]3NC(=O)[C@H](C(C)C)NC(=O)[C@H](CC(C)C)NC(=O)[C@H](CC(N)=O)NC(=O)[C@@H]4CCCN4C(=O)[C@H](CCCNC(=N)N)NC(=O)[C@H](CSSC[C@H](NC(=O)[C@@H](N)CC(=O)O)C(=O)N[C@@H](CC(C)C)C(=O)NCC(=O)N[C@@H](Cc4ccccc4)C(=O)N[C@@H](CCSC)C(=O)N[C@@H](CCCNC(=N)N)C(=O)N[C@@H](CCCCN)C(=O)N2)NC(=O)[C@H](CSSC[C@@H](C(=O)N[C@@H](CCCCN)C(=O)N[C@@H](Cc2ccc(O)cc2)C(=O)N[C@H](C(=O)N[C@@H](Cc2ccccc2)C(N)=O)C(C)C)NC(=O)[C@H](Cc2c[nH]c4ccccc24)NC(=O)[C@H](CCCCN)NC(=O)[C@H](Cc2cnc[nH]2)NC(=O)[C@H]([C@@H](C)O)NC(=O)[C@H](CCCNC(=N)N)NC(=O)[C@H](C)NC3=O)NC(=O)[C@H](CCCCN)NC(=O)[C@H](CC(=O)O)NC(=O)[C@H](CC(N)=O)NC(=O)[C@H](CC(=O)O)NC(=O)[C@@H]2CCCN2C1=O` (H-DCLGFMRKCIPDNDKCCRPNLVCARTHKWCKYVF-NH2; disulfide 2-17, 9-23, 16-30) was run?
**A.** The IC50 was greater than 4.7 µM.

**Q.** For `CC[C@H](C)[C@@H]1NC(=O)[C@@H]2CSSC[C@@H]3NC(=O)[C@H](C(C)C)NC(=O)[C@H](CC(C)C)NC(=O)[C@H](CC(N)=O)NC(=O)[C@@H]4CCCN4C(=O)[C@H](CCCNC(=N)N)NC(=O)[C@H](CSSC[C@H](NC(=O)[C@@H](N)CC(=O)O)C(=O)N[C@@H](CC(C)C)C(=O)NCC(=O)N[C@@H](Cc4ccccc4)C(=O)N[C@@H](CCSC)C(=O)N[C@@H](C)C(=O)N[C@@H](CCCCN)C(=O)N2)NC(=O)[C@H](CSSC[C@@H](C(=O)N[C@@H](CCCCN)C(=O)N[C@@H](Cc2ccc(O)cc2)C(=O)N[C@H](C(=O)N[C@@H](Cc2ccccc2)C(N)=O)C(C)C)NC(=O)[C@H](Cc2c[nH]c4ccccc24)NC(=O)[C@H](CCCCN)NC(=O)[C@H](Cc2cnc[nH]2)NC(=O)[C@H]([C@@H](C)O)NC(=O)[C@H](CCCNC(=N)N)NC(=O)[C@H](CO)NC3=O)NC(=O)[C@H](CCCCN)NC(=O)[C@H](CC(=O)O)NC(=O)[C@H](CC(N)=O)NC(=O)[C@H](CC(=O)O)NC(=O)[C@@H]2CCCN2C1=O` (H-DCLGFMAKCIPDNDKCCRPNLVCSRTHKWCKYVF-NH2; disulfide 2-17, 9-23, 16-30), which IC50 is on record?
**A.** Its IC50 is greater than 5 µM.

**Q.** Which IC50 does the source give for `CC[C@H](C)[C@@H]1NC(=O)[C@@H]2CSSC[C@@H]3NC(=O)[C@H](C(C)C)NC(=O)[C@H](CC(C)C)NC(=O)[C@H](CC(N)=O)NC(=O)[C@@H]4CCCN4C(=O)[C@H](CCCNC(=N)N)NC(=O)[C@H](CSSC[C@H](NC(=O)[C@@H](N)CC(=O)O)C(=O)N[C@@H](CC(C)C)C(=O)NCC(=O)NCC(=O)N[C@@H](CCSC)C(=O)N[C@@H](CCCNC(=N)N)C(=O)N[C@@H](CCCCN)C(=O)N2)NC(=O)[C@H](CSSC[C@@H](C(=O)N[C@@H](CCCCN)C(=O)N[C@@H](Cc2ccc(O)cc2)C(=O)N[C@H](C(=O)N[C@@H](Cc2ccccc2)C(N)=O)C(C)C)NC(=O)[C@H](Cc2c[nH]c4ccccc24)NC(=O)[C@H](CCCCN)NC(=O)[C@H](Cc2cnc[nH]2)NC(=O)[C@H]([C@@H](C)O)NC(=O)[C@H](CCCNC(=N)N)NC(=O)[C@H](CO)NC3=O)NC(=O)[C@H](CCCCN)NC(=O)[C@H](CC(=O)O)NC(=O)[C@H](CC(N)=O)NC(=O)[C@H](CC(=O)O)NC(=O)[C@@H]2CCCN2C1=O` (H-DCLGGMRKCIPDNDKCCRPNLVCSRTHKWCKYVF-NH2; disulfide 2-17, 9-23, 16-30) here?
**A.** Its IC50 is greater than 10 µM.
